# From article PMC11796369, “Genetic and biochemical characterization of a radical SAM enzyme required for post-translational glutamine methylation of methyl-coenzyme M reductase” (mBio, 2025)
# Target: T1, MmMgmA (Methanothermobacter marburgensis, UniProt D9PY35)
# T1 construct: gene MTBMA_c15540; full-length; E. coli BL21(DE3) from codon-optimised gene in pET28a, reconstituted with 4Fe-4S and cobalamin (structure, kinetics); also TAP-tagged from M. acetivorans (native cobamide, peptide assay)
# T1 sequence (D9PY35 1-430): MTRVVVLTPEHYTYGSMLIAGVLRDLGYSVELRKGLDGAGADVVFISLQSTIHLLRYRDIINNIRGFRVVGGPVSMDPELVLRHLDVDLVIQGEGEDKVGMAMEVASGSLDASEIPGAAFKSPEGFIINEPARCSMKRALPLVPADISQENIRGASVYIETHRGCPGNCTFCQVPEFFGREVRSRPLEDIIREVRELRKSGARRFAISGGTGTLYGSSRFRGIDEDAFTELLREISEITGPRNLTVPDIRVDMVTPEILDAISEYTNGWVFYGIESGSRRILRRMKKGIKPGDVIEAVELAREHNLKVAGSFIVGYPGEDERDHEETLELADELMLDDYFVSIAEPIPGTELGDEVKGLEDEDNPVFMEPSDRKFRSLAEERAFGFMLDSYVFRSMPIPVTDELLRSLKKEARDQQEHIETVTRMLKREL
# Test: UHPLC-MS of […]'-dAH and SAH
# Format: biochemical
# Settings: reconstituted enzyme; 500 µM SAM, 200 µM McrA peptide, 2 mM Ti citrate, 250 mM KCl, 50 mM HEPES pH 7.5
compound,measurement,value
C[S+](CC[C@H](N)C(=O)O)C[C@H]1O[C@@H](n2cnc3c(N)ncnc32)[C@H](O)[C@@H]1O (stereo partly shown) [SAM],UHPLC-MS of 5'-dAH and SAH,The reconstituted enzyme was highly active
